Measurements published in patent US20090036485A1, “Quinoline derivatives” (priority 2004, published 2009).

Experiments:
PDGFRα tyrosine kinase = molecular target: T1, PDGFRα tyrosine kinase (Homo sapiens, UniProt P16234); assay: In vitro enzyme assay (ELISA), PDGFRα tyrosine kinase; assay type: biochemical; settings: Test (a); ATP 14 μM; read-out: IC50 versus PDGFRα tyrosine kinase
T1 construct: PDGFRα, PDGFRβ and KDR receptor cytoplasmic domains, obtained by expression of recombinant protein in insect cells; purchased Upstate Biotechnology Inc. 14-467; host or cells: Sf9 insect cells
T1 sequence (P16234 550-1089 limits assumed): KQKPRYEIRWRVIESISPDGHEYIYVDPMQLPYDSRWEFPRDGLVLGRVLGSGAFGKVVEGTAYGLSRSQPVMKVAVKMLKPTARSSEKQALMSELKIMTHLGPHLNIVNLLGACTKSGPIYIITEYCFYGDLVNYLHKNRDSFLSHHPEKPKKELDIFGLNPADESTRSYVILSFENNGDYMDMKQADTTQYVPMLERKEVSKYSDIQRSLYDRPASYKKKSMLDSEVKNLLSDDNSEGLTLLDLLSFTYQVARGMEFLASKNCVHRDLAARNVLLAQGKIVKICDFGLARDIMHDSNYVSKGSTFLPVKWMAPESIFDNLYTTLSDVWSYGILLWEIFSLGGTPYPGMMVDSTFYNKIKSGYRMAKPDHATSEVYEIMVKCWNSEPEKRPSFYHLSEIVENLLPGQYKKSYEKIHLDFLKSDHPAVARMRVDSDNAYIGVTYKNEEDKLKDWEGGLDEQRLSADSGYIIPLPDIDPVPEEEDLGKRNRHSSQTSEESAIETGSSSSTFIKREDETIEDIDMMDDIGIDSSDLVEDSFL
Protocol: The ability of test compounds to inhibit the phosphorylation of a tyrosine containing polypeptide substrate by the tyrosine kinase enzymes PDGFRα, PDGFRβ and KDR was assessed using conventional ELISA assays.
DNA encoding the PDGFRα, PDGFRβ or KDR receptor cytoplasmic domains may be obtained by total gene synthesis (International Biotechnology Lab., 1987, 5(3), 19-25) or by cloning. The DNA fragments may be expressed in a suitable expression system to obtain polypeptide with tyrosine kinase activity. For example, PDGFRα, PDGFRβ and KDR receptor cytoplasmic domains, obtained by expression of recombinant protein in insect cells, can be shown to display intrinsic tyrosine kinase activity. In the case of the VEGF receptor KDR (Genbank Accession No. L04947), a DNA fragment encoding most of the cytoplasmic domain, commencing with methionine 806 and including the termination codon may be cloned into a baculovirus transplacement vector [for example pAcYM1 (see The Baculovirus Expression System: A Laboratory Guide, L. A. King and R. D. Possee, Chapman and Hall, 1992) or pAc360 or pBlueBacHis (available from Invitrogen Corporation)]. This recombinant construct may be co-transfected into insect cells [for example Spodoptera frugiperda 21(Sf21) or Spodoptera frugiperda 9(Sf9)] with viral DNA (for example Pharmingen BaculoGold) to prepare recombinant baculovirus. […]

phospho-Tyr751 PDGFRβ = molecular target: T2, phospho-Tyr751 PDGFRβ (Homo sapiens, UniProt P09619); assay: In vitro phospho-Tyr751 PDGFRβ ELISA assay in MG63 osteosarcoma cells; assay type: cell-based; settings: Test (b); MG63 cells stimulated with PDGFBB; read-out: IC50 versus phospho-Tyr751 PDGFRβ
T2 construct: phosphorylation of PDGFR expressed on MG63 osteosarcoma cells; endogenous in cells; host or cells: MG63 osteosarcoma cells
T2 sequence (P09619 33-1106): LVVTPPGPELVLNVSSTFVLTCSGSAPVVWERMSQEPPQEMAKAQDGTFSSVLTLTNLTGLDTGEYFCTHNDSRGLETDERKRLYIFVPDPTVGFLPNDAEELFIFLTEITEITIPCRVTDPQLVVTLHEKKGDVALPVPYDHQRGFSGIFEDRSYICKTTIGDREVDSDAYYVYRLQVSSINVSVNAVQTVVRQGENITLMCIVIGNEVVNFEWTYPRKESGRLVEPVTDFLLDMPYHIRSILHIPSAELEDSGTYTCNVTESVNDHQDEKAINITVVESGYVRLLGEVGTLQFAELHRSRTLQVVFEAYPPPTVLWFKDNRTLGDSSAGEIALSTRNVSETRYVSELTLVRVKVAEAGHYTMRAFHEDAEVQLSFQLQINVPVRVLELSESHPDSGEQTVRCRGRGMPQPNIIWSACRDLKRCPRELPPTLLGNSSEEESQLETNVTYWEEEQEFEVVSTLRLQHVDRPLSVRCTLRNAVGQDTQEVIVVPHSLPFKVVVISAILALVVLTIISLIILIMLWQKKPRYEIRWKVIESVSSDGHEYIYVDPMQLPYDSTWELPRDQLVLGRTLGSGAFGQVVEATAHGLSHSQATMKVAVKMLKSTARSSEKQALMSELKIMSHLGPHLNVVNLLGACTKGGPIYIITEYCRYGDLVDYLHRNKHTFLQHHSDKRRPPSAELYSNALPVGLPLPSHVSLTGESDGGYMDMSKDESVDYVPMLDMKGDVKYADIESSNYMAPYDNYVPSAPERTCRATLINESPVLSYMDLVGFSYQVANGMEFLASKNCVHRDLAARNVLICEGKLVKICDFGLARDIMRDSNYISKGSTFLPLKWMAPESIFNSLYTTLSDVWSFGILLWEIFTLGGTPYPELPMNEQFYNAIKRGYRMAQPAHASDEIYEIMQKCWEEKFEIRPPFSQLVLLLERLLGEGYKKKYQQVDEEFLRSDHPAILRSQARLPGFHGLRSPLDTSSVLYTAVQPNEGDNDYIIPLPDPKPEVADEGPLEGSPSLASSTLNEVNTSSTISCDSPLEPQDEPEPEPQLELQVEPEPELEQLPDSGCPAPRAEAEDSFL
Protocol: This assay uses a conventional ELISA method to determine the ability of test compounds to inhibit phosphorylation of tyrosine in PDGFRβ.
The cells were incubated overnight at 37° C. with 7.5% CO2 to allow the cells to adhere to the wells.
The cells were incubated for 90 minutes at 37° C. with 7.5% CO2.
The resultant cells were stimulated with PDGFBB using the following procedure. […] The cells were incubated at 37° C. with 7.5% CO2 for 5 minutes. […] The resultant tissue culture plates were shaken for 5 minutes at ambient temperature to ensure full lysis and then frozen at −20° C. until required.
The wells were washed 5 times (1 minute soak each time) with 300 μl per well of PBST. The wells were treated with 50 μl of 3% BSA in PBST at ambient temperature for 1 hour and subsequently washed twice with 300 μl per well of PBST.
The tissue culture plates with frozen cell lysate were allowed to warm to 0° C. […] Aliquots (50 μl) of chemiluminescent substrate solution were added to each of the wells, the plates were agitated for 2 minutes and luminescence was read on a SpectraFluor Plus plate reader (Tecan UK Ltd., Reading, Berkshire, UK). Analysis for each of the compounds was completed by determining a ratio of the ‘phospho antibody’ plate reading to the ‘total antibody’ plate reading for each test sample and these ratios were plotted to determine the IC50 value of each test compound.

PDGFRβ tyrosine kinase = molecular target: T3, PDGFRβ tyrosine kinase (Homo sapiens, UniProt P09619); assay: In vitro enzyme assay (ELISA), PDGFRβ tyrosine kinase; assay type: biochemical
T3 construct: PDGFRα, PDGFRβ and KDR receptor cytoplasmic domains, obtained by expression of recombinant protein in insect cells; purchased Upstate Biotechnology Inc. 14-463; host or cells: Sf9 insect cells
T3 sequence (P09619 554-1106 limits assumed): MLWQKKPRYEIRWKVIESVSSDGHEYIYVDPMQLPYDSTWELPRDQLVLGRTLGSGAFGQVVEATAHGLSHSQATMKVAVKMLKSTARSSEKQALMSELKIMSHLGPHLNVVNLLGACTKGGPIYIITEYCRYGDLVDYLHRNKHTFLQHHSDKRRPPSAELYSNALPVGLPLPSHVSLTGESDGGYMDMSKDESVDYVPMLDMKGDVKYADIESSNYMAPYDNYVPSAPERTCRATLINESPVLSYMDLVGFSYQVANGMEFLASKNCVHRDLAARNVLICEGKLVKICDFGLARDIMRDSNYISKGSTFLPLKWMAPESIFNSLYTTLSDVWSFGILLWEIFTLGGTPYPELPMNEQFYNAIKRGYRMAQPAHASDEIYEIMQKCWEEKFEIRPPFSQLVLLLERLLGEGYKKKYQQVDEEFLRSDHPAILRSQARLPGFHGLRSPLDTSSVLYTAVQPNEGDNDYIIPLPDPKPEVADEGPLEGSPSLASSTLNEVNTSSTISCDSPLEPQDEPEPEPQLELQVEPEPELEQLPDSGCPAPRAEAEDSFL
Protocol: (§1) The excess of substrate solution was discarded and the wells were washed in turn with PBS containing 0.05% v/v Tween 20 (PBST; 300 μl/well) and twice with Hepes pH7.4 buffer (50 mM, 300 μl/well) before being blotted dry.
Aliquots (25 μl) of each dilution of test compound were transferred to wells in the washed assay plates. “Maximum” control wells contained diluted DMSO instead of compound. Aliquots (25 μl) of an aqueous manganese chloride solution (40 mM) containing adenosine-5′-triphosphate (ATP) was added to all test wells except the “blank” control wells which contained magnesium chloride without ATP.
Each kinase enzyme was diluted immediately prior to use with an enzyme diluent comprising 100 mM Hepes pH7.4 buffer, 0.1 mM sodium orthovanadate, 0.1% Triton X-100 and 0.2 mM dithiothreitol. Aliquots (50 μl) of freshly diluted enzyme were added to each well and the plates were agitated at ambient temperature for 20 minutes. […] The plates were agitated at ambient temperature for about 20 minutes until the optical density value of the “maximum” control wells, as measured at 405 nm using a plate reading spectrophotometer, was approximately 1.0.

KDR tyrosine kinase = molecular target: T4, KDR tyrosine kinase (Homo sapiens, UniProt P35968); assay: In vitro enzyme assay (ELISA), KDR tyrosine kinase; assay type: biochemical; settings: Test (a); ATP 8 μM; read-out: IC50 versus KDR tyrosine kinase
T4 construct: encoding most of the cytoplasmic domain, commencing with methionine 806 and including the termination codon; made in house; host or cells: Sf9 insect cells (baculovirus)
T4 sequence (P35968 786-1356 limits assumed): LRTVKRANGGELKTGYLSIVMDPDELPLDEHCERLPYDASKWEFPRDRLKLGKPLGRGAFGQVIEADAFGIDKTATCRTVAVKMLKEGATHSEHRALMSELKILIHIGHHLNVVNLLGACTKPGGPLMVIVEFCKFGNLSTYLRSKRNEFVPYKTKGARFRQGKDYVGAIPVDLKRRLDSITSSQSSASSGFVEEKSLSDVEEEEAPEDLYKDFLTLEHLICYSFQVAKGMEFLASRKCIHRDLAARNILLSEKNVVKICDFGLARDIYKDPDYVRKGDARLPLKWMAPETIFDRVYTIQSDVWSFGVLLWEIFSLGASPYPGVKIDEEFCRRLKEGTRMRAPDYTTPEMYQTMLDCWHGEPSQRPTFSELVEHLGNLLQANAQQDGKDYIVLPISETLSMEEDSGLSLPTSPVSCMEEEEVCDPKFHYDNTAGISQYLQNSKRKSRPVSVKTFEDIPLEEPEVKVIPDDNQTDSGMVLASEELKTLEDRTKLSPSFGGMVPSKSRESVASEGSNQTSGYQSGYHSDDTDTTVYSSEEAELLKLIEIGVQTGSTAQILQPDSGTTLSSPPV
Protocol: For expression, Sf9 cells were infected with plaque-pure KDR recombinant virus and harvested 48 hours later. […] The suspension was centrifuged for 10 minutes at 13,000 rpm at 4° C. The supernatant (stock enzyme solution) was removed and stored in aliquots at −70° C.
as §1
Aliquots (25 μl) of each dilution of test compound were transferred to wells in the washed assay plates. “Maximum” control wells contained diluted DMSO instead of compound. […]
Each kinase enzyme was diluted immediately prior to use with an enzyme diluent comprising 100 mM Hepes pH7.4 buffer, 0.1 mM sodium orthovanadate, 0.1% Triton X-100 and 0.2 mM dithiothreitol. […] The plates were agitated at ambient temperature for about 20 minutes until the optical density value of the “maximum” control wells, as measured at 405 nm using a plate reading spectrophotometer, was approximately 1.0.

IC50 (PDGFRα tyrosine kinase): ~0.5 µM
IC50 (phospho-Tyr751 PDGFRβ): ~0.002 µM
IC50 (PDGFRβ tyrosine kinase): ~0.1 µM
IC50 (KDR tyrosine kinase): ~6 µM
Structure (SMILES): COc1cc2nccc(Oc3cnn(CC(=O)Nc4cccc(F)c4)c3)c2cc1C#N [Example 1, N-(3-fluorophenyl)-2-[4-(6-cyano-7-methoxyquinolin-4-yloxy)pyrazol-1-yl]acetamide]
